Data set [1] can be described thus: Gramicidin-based fluorescence quench assay for changes of lipid bilayer properties (LUVs). As to conditions: 1 to 10 µM. It is filed as physicochemical. The text has this:
To further probe this, we used a fluorescence quench assay for drug-induced changes of lipid bilayer properties ([Ingólfsson and Andersen, 2010]) (Figure 6—figure supplement 3A; see Materials and methods), in which changes in gramicidin channel function is used as a reporter of membrane modification. […] The persistent BINA response is thus consistent with a model where BINA readily partitions into the plasma membrane lipid bilayer (and possibly other lipidic compartments).
The gramicidin-based fluorescence assay has been described previously ([Ingólfsson and Andersen, 2010]). In brief, large unilamellar vesicles (LUVs), loaded with intravesicular ANTS were prepared from DC22:1PC and gramicidin (weight ratio 1000:1, corresponding to a ~ 2000:1 molar ratio) using freeze-drying, extrusion and size-exclusion chromatography; the final lipid concentration was 4–5 mM; the suspension was stored in the dark at 12.5°C for a maximum of 7 days. […] Before use, the LUV-ANTS stock was diluted to 200–250 μM lipid with NaNO3 buffer (140 mM NaNO3, 10 mM HEPES, pH 7).
The NAMs and PAMs (dissolved in DMSO) or DMSO (as control) were added to a LUV-ANTS sample and equilibrated at 25°C in the dark for 10 min. before the mixture was loaded into a stopped-flow spectrofluorometer (Applied Photophysics SX.20, Leatherhead, UK) and mixed with either NaNO3 buffer or TlNO3 buffer; Tl^+ (thallous ion) is a gramicidin channel-permeant quencher of the ANTS fluorescence. Samples were excited at 352 nm and the fluorescence signal above 455 nm was recorded in the absence (four successive trials) or presence (nine successive trials) of the quencher. All the NAM and PAM derivatives fluoresce to varying degrees and addition of these drugs to LUVs in control experiments without gA or Tl^+ increased the fluorescence signal, and each signal was normalized to account for the compound's fluorescence. […] The quench rate (Rate), the rate of Tl^+ influx, was determined at 2 ms: Rate=β/τ0⋅(t/τ0)^β−1|2ms […]

Data set [2] has as its target T1, SNAP-mGluR2 (full-length) (Rattus norvegicus, UniProt P31421).
T1 construct: HEK 293T cells expressing full-length mGluR2; expressed in transfected cells; host or cells: HEK 293T
The data set can be described thus: Inter-LBD FRET assay with full-length SNAP-mGluR2. It is filed as cell-based. As to conditions: drug applied alone, saturating concentrations. The text has this: We next sought to further probe the variation in PAM-induced inter-TMD FRET changes. […] We used an inter-LBD FRET assay to assess the relative strength of allosteric modulation by different mGluR2 PAMs. Agonists induce a decrease in FRET between fluorophore-conjugated N-terminal SNAP- and CLIP-tags (Figure 4E). […] We tested this effect for all PAMs by applying a saturating concentration of DCG-IV followed by co-application of a saturating concentration of each PAM, which produced further FRET decreases (Figure 4F,G).
(§1) Fluorophores were diluted in EX solution, which was also used to wash coverslips following labeling and prior to mounting on the microscope. After labeling, cells were mounted on an inverted microscope (Olympus IX73) and imaged with a 60x objective. […] Clusters of cells were analyzed together using ImageJ and FRET was calculated as FRET=(IAcceptor)/(IDonor +IAcceptor) where I is fluorescence intensity. No corrections were made for bleed-through between channels or the contribution of donor-donor or acceptor-acceptor dimers as analysis was limited to relative FRET changes between drug treatments rather than absolute FRET values. […] FRET changes calculated for dose–response curves were normalized to the response to saturating […] applied within the same recording and dose–response curves were obtained from multiple cell clusters and averaged from at least three separate experiments. Dose–response curves were fit using Prism (Graphpad). All drugs were purchased from Tocris, prepared in EX solution, and delivered with a gravity-driven perfusion system. For kinetics measurements a pressurized perfusion system (Automate Scientific) was used to produce a flow rate of 0.5 mL/s. Kinetic analysis was performed in Microsoft Excel. The time between 10% and 90% FRET increase or decrease was determined manually. For photo-bleaching/donor-recovery experiments, images were taken in donor and acceptor channels at baseline and again followed by a 1 min exposure to 640 nm laser illumination at maximum intensity. All experiments were performed at room temperature. All data were produced from at least two separate transfections for each condition.

Data set [3] addresses T2, full-length mGluR2 (SNAP-mGluR2) (Rattus norvegicus, UniProt P31421).
T2 construct: HEK 293T cells expressing full-length mGluR2; expressed in transfected cells; host or cells: HEK 293T
The data set is described as follows: GIRK activation assay, whole cell patch clamp, HEK 293T cells expressing full-length mGluR2. It is filed as cell-based. As to conditions: for EC50: read-out: GIRK activation EC50. On the procedure:
Cells were cultured in DMEM with 5% FBS on poly-L-lysine-coated glass coverslips. DNA plasmids were transfected into cells using Lipofectamine 3000 (Thermo Fisher). […] For single-molecule pulldown (SiMPull) experiments, cells were transfected with 0.7 μg DNA of HA and SNAP-tagged receptor constructs, unless otherwise noted.
Whole-cell patch clamp recordings from single isolated cells were performed 24–36 hr after transfection in a high-potassium extracellular solution containing (in mM): 120 KCl, 29 NaCl, 1 MgCl2, 2 CaCl2 and 10 HEPES, pH 7.4. Cells were voltage clamped to −60 mV using an Axopatch 200B amplifier (Axon Instruments) and membrane currents were recorded. Glass pipettes of resistance between 3 and 8 MΩ were filled with intracellular solution containing (in mM): 140 KCl, 10 HEPES, 3 Na2ATP, 0.2 Na2GTP, 5 EGTA and 3 MgCl2, pH 7.4. Data were acquired with a 2 kHz acquisition rate and filtered with the amplifier 4-pole Bessel filter at 1 kHz. Drugs were prepared in extracellular solution and applied using a gravity-driven perfusion system. Data were analyzed with Clampfit (Molecular Devices) and Prism (GraphPad). Data for all conditions came from at least two separate transfections.

The target of data set [4] is T3, SNAP-mGluR2-TMD (Rattus norvegicus, UniProt P31421).
T3 construct: mGluR2-TMD (rat) starts at Q558; expressed in transfected cells; host or cells: HEK 293T
T3 sequence (P31421 558-872 limits assumed): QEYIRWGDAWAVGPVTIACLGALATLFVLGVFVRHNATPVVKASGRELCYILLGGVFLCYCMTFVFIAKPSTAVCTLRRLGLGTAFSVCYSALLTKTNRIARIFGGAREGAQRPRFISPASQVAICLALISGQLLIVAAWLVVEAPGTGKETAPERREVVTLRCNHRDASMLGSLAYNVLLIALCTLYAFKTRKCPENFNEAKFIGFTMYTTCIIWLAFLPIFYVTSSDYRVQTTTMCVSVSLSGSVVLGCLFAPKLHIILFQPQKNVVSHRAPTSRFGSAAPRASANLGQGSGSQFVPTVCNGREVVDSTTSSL
The data set can be described thus: Inter-TMD FRET assay in living HEK 293T cells. Format: cell-based. As to conditions: for EC50: SNAP-mGluR2-TMD labeled with donor and acceptor, normalized to saturating LY48, mean ± s.e.m., read-out: inter-TMD FRET increase EC50.
Excerpt: We therefore sought to develop a FRET sensor that reports on activation-associated motions driven by allosteric drugs and hypothesized that an N-terminal fluorophore on the isolated TMD should report on any inter-TMD rearrangement while allowing the receptor to maintain G-protein coupling (Figure 3A). […] To test if LBD-independent inter-TMD rearrangement is a feature of other mGluRs, we asked if donor and acceptor conjugation to SNAP-mGluR5-TMD would allow for the detection a FRET response to a PAM.
Cells were cultured in DMEM with 5% FBS on poly-L-lysine-coated glass coverslips. DNA plasmids were transfected into cells using Lipofectamine 3000 (Thermo Fisher). […] For single-molecule pulldown (SiMPull) experiments, cells were transfected with 0.7 μg DNA of HA and SNAP-tagged receptor constructs, unless otherwise noted. For FRET experiments, cells were transfected with either SNAP-tagged constructs at 0.5–0.7 μg of DNA/well or SNAP and CLIP-tagged constructs at a ratio of 1:2 with 0.3 μg of SNAP DNA/well.
as §1

Data set [5] has as its target T4, SNAP-mGluR2 (Rattus norvegicus, UniProt P31421).
T4 construct: HEK 293T cells expressing full-length mGluR2; expressed in transfected cells; host or cells: HEK 293T
The data set is described as follows: Single-molecule pulldown (SiMPull) photobleaching step counting, full-length SNAP-mGluR2. As to conditions: saturating (1 mM) glutamate. On the procedure: To restrict our analysis to surface-targeted receptors, we expressed N-terminally SNAP-tagged receptor variants and labeled them with membrane-impermeable fluorophores.
To test this, we incubated SNAP-mGluR2-TMD expressing cells and lysates with PAMs or NAMs during the SiMPull experiment.
Briefly, to prevent non-specific sticking of proteins, flow chambers were prepared with mPEG-passivated glass slides and coverslips doped with ~1% biotinylated mPEG, as previously described. Prior to each experiment, chambers were incubated with 0.2 mg/mL NeutrAvidin (ThermoFisher) for 2 min followed by 10 nM of a biotinylated anti-HA antibody (abcam ab26228) for 20–30 min. After each conjugation step, the chambers were washed with T50 buffer (50 mM NaCl, 10 mM Tris, pH 7.5).
After labeling, cells were dissociated from coverslips by incubating with Ca^2+-free PBS for 20 min followed by gentle pipetting. […] Following 1 hr of lysis at 4°C, cells were centrifuged at 16,000 g for 20 min before the supernatant was collected and maintained on ice. The cell lysate was diluted in a 0.1% detergent dilution buffer to obtain sparse immobilization of labeled protein on the passivated slide. […]
Single molecules were imaged with a 100x objective on an inverted microscope (Olympus IX73) in total internal reflection fluorescence (TIRF) mode. […]

Data set [6] deals with SNAP-mGluR5-TMD (Homo sapiens, UniProt P41594). The data set is described as follows: Inter-TMD FRET assay with SNAP-mGluR5-TMD. Format: cell-based, H. sapiens. The settings on record: mGluR5 PAM applied alone.
SNAP-mGluR5-TMD, sequence (P41594 570-876 limits assumed): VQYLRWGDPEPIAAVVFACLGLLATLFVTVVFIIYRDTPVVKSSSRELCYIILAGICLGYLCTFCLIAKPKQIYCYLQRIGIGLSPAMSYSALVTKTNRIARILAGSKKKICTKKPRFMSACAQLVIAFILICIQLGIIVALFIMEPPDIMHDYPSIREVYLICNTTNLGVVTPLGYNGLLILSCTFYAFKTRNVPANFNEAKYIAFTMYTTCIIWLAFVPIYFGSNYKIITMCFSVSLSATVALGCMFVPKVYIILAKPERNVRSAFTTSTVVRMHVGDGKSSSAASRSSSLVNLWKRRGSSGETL

By EC50 is commonly meant the concentration giving half of the maximal effect.

T2 sequence (P31421 19-872): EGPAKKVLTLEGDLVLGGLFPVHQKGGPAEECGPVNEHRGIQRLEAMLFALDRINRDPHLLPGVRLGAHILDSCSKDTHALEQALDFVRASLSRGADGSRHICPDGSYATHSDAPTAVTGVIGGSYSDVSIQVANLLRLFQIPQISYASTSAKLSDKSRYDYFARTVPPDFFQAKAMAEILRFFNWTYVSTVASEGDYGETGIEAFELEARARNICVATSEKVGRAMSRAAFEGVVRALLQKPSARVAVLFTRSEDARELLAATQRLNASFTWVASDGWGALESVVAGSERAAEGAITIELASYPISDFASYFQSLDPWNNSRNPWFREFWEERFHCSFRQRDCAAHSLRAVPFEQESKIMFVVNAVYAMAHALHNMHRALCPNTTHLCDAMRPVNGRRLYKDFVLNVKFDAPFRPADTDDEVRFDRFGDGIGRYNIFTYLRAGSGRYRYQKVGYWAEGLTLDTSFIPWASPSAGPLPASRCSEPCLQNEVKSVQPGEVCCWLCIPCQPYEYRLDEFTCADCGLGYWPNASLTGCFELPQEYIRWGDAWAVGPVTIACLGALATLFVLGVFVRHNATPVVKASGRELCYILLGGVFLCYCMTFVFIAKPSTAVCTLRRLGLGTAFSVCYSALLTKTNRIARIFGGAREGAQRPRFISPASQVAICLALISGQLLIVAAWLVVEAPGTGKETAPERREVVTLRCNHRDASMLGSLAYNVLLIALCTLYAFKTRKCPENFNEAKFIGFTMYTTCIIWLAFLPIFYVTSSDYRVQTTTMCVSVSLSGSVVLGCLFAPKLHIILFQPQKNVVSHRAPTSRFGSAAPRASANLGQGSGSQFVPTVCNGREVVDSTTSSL
T1 sequence (P31421 19-872): as above
T4 sequence (P31421 19-872): as above

For `Cc1c(OCc2cccc(-c3ccc(C(=O)O)cc3)c2)cc2c(c1C)C(=O)C(C1CCCC1)C2` (stereo not drawn) [BINA], the “changes in gramicidin channel function (membrane properties)” value in data set [1] is listed as “greatest changes in gramicidin channel function”.
Regarding `CCS(=O)(=O)N(Cc1cccnc1)c1cccc(-c2ccc(C#N)cc2)c1` [CBiPES], the “direct effect on inter-LBD FRET (no orthosteric agonist for modulators)” value in data set [2] was “no FRET response”. Besides, in data set [3], the concentration giving a half-maximal response (EC50) was 460 ± 200 nM. Also, in data set [4], the “inter-TMD FRET kinetics relative to LY48” value is “substantially faster ON and OFF kinetics”; the EC50 turned out to be 3500 ± 200 nM. Also, in data set [4] (saturating concentrations), the “inter-TMD FRET response onset” value was 10 to 40 s and the “inter-TMD FRET response reversal” value is listed as < 2 min.
Take `N[C@@H](CCC(=O)O)C(=O)O` [Glutamate]: the “direct effect on inter-LBD FRET (no orthosteric agonist for modulators)” value in data set [2] is listed as “large FRET decrease”. Also, the “GIRK current time 10% to 90%” value in data set [3] (saturating: 10 µM LY48, 1 mM Glutamate) is 1.9 ± 0.5 s. Further, the “two-step bleaching events of SNAP-mGluR2 with glutamate” value in data set [5] is ~ 60%.
Regarding `Cc1c(C(N)=O)nc2n1C[C@@H](COc1ccc(C(C)(C)C)cc1)O2` [TASP], the “direct effect on inter-LBD FRET (no orthosteric agonist for modulators)” value in data set [2] is recorded as “no FRET response”. The EC50 in data set [3] was 380 ± 110 nM. Further, the EC50 in data set [4] was found to be 900 ± 100 nM. Also, in data set [4] (saturating concentrations), the “inter-TMD FRET response onset” value is 10 to 40 s and the “inter-TMD FRET response reversal” value is listed as < 2 min. For the same molecule, the “maximum inter-TMD FRET increase relative to LY48” value in data set [4] (saturating concentrations, compared to saturating LY48) was ~ 1.3 times that of LY48.
With `O=C(NC1CCC1)c1ccc(C#Cc2cccc(F)c2)nc1` [VU0360172], the “inter-TMD FRET response of SNAP-mGluR5-TMD” value in data set [6] was “reversible FRET response”.
Turning to `O=C(O)c1cc(O)c2cccc(O)c2n1` [XA, Xanthurenic acid], the “inter-TMD FRET response to drug alone” value in data set [4] (drug applied alone, XA up to 50 µM) was “neither inter-TMD FRET changes”.

Values taken from PMC6588349 (eLife, 2019).
